{"source": "paper PMC9898036", "about": "“VIP152 is a selective CDK9 inhibitor with pre-clinical in vitro and in vivo efficacy in chronic lymphocytic leukemia” (Leukemia, 2022)", "key": {"CDK9": {"target": "CDK9 (Homo sapiens, UniProt P50750)", "sequence (P50750 whole entry)": "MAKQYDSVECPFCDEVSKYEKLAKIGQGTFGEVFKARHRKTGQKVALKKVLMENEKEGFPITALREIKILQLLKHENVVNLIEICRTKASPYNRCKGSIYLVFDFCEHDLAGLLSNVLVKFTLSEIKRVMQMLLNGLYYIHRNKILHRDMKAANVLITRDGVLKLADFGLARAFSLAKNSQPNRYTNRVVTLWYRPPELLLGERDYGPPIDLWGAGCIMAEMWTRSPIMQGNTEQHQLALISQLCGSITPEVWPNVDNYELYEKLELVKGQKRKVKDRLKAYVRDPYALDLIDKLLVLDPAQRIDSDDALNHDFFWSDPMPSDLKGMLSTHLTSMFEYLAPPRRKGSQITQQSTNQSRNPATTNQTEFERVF", "experiment": "KINOMEscan: CDK9", "assay_type": "binding", "procedure": "The structure and synthesis of VIP152 were recently described by Lücking et al.. (Fig. 1A); however, the selectivity of the molecule in cellular systems has yet to be explored. […] We also performed this experiment at 1000 nM, where CDK9 was inhibited at 99%. […] We found a strong concordance between our data and those of Lücking when comparing the most inhibited kinases. Potential off-target effects of VIP152 were next tested in vitro at a concentration of 10 µM for off-target activity against a broad range of receptors, transporters, ion channels, and enzymes (n = 138) using the Eurofins Diversity Panel.\nKinomescan Kinase Profiling Assay\nKinomescan Assay was performed at DiscoverRX and described in Fabian, et al. 2005, Nat.\nBiotechnol. In brief, kinases were produced and subsequently tagged with DNA for qPCR detection.\nStreptavidin-coated magnetic beads were bound to biotinylated kinase ligands to serve as a solid support.\nVIP152 was dissolved in DMSO and tested across a 10 serial threefold dilution set and compared to a test compound and a DMSO control. Kinases which were inhibited by VIP152 would not be bound to the solid-support resulting in decreased substrate for the qPCR reaction. Kinome map was produced via TreeSpot Analysis from DiscoverRX. […]\nNanoBRETTM Target Engagement Assay Protocol […]\nComplete 20X NanoBRET Tracer Reagent was prepared with Tracer Dilution Buffer and dispensed at a ratio of 1:20 Reagent to cells in the tube. The cell"}, "GSK3β": {"target": "GSK3β (Homo sapiens, UniProt P49841)", "sequence (P49841 whole entry)": "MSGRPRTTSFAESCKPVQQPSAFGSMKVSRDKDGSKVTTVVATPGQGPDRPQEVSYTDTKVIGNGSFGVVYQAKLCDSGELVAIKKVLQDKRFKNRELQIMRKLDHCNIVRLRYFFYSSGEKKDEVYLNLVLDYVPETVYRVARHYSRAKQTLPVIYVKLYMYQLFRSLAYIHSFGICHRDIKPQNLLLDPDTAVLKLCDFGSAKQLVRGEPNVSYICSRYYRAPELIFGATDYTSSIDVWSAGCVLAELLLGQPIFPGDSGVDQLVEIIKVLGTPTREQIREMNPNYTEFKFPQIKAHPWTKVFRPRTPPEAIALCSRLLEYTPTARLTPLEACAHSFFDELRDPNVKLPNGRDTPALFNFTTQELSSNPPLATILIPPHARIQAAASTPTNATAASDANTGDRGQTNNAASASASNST", "experiment": "NanoBRET target engagement assay (HEK293)", "assay_type": "cell-based"}, "Adrenergic α1D": {"target": "Adrenergic α1D (Homo sapiens, UniProt P25100)", "experiment": "Eurofins Diversity Panel", "assay_type": "binding", "settings": "hum, Conc. 10 μM"}, "Calcium Channel N-Type": {"target": "Calcium Channel N-Type (Rattus norvegicus, UniProt Q02294)", "experiment": "Eurofins Diversity Panel", "assay_type": "binding", "settings": "Conc. 10 μM"}, "GABAA, Muscimol, Central": {"test_system": "GABAA, Muscimol, Central", "experiment": "Eurofins Diversity Panel", "assay_type": "binding", "settings": "rat, Conc. 10 μM"}, "Muscarinic M1": {"target": "Muscarinic M1 (Homo sapiens, UniProt P11229)", "sequence (P11229 whole entry)": "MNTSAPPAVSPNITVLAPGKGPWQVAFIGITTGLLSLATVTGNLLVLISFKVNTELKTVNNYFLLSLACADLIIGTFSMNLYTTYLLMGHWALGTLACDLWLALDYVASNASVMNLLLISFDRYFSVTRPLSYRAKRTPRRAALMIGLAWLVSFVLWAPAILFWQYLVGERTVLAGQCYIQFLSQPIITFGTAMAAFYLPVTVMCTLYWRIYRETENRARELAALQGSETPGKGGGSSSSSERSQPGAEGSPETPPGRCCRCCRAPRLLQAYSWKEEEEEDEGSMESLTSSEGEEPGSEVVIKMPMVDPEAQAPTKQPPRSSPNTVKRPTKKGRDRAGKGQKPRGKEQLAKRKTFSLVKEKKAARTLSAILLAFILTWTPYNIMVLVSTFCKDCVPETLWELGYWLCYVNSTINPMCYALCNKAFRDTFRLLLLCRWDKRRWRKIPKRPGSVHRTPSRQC", "experiment": "Eurofins Diversity Panel", "assay_type": "binding", "settings": "hum, Conc. 10 μM"}, "Purinergic P2X": {"test_system": "Purinergic P2X", "experiment": "Eurofins Diversity Panel", "assay_type": "binding", "settings": "rabbit, Conc. 10 μM"}, "[1]": {"target": "Transporter, Norepinephrine (NET) (Homo sapiens, UniProt P23975)", "experiment": "Eurofins Diversity Panel", "assay_type": "binding", "settings": "hum, Conc. 10 μM"}, "SNRK": {"target": "SNRK (Homo sapiens, UniProt Q9NRH2)", "experiment": "KINOMEscan: SNRK", "assay_type": "binding", "settings": "100 nM, read-out: Percent Control"}, "TESK1": {"target": "TESK1 (Homo sapiens, UniProt Q15569)", "sequence (Q15569 whole entry)": "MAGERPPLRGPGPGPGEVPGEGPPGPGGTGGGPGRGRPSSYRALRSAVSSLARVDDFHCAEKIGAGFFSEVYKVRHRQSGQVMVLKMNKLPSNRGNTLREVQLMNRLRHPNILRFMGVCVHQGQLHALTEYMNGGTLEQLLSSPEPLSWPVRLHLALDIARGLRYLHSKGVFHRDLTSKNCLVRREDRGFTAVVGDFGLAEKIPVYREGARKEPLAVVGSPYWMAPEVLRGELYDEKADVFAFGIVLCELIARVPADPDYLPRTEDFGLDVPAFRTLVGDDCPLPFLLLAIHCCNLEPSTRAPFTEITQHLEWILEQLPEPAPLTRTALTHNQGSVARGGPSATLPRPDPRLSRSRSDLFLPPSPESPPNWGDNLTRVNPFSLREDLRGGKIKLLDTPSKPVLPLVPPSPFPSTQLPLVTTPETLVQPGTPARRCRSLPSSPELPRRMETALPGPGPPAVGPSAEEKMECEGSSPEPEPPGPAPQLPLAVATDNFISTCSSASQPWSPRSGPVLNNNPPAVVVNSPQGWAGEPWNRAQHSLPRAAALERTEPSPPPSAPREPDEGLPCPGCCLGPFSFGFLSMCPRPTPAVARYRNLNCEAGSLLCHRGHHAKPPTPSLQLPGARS", "experiment": "KINOMEscan: TESK1", "assay_type": "binding", "settings": "100 nM, read-out: Percent Control"}, "TSSK3": {"target": "TSSK3 (Homo sapiens, UniProt Q96PN8)", "experiment": "KINOMEscan: TSSK3", "assay_type": "binding", "settings": "100 nM, read-out: Percent Control"}, "BMPR1A": {"target": "BMPR1A (Homo sapiens, UniProt P36894)", "sequence (P36894 24-532)": "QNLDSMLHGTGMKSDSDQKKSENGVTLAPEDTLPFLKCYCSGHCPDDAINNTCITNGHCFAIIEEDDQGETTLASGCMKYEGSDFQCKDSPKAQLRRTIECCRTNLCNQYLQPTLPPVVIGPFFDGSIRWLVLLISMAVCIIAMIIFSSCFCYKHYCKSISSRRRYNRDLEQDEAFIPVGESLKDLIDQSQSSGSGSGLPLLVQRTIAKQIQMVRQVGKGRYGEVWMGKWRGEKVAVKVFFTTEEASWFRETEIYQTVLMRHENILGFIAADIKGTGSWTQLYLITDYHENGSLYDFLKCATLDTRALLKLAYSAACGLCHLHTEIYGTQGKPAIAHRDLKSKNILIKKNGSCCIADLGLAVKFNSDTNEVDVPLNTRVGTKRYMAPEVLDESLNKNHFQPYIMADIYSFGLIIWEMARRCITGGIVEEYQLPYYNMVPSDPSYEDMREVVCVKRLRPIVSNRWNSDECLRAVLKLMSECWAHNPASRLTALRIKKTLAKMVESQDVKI", "experiment": "KINOMEscan: BMPR1A", "assay_type": "binding", "settings": "1000 nM, read-out: Percent Control"}, "CAMKK1": {"target": "CAMKK1 (Homo sapiens, UniProt Q8N5S9)", "experiment": "KINOMEscan: CAMKK1", "assay_type": "binding", "settings": "1000 nM, read-out: Percent Control"}, "CSF1R-autoinhibited": {"target": "CSF1R-autoinhibited (Homo sapiens, UniProt P07333)", "experiment": "KINOMEscan: CSF1R-autoinhibited", "assay_type": "binding", "settings": "1000 nM, read-out: Percent Control"}, "DDR1": {"target": "DDR1 (Homo sapiens, UniProt Q08345)", "experiment": "KINOMEscan: DDR1", "assay_type": "binding", "settings": "1000 nM, read-out: Percent Control"}, "EGFR(G719C)": {"target": "EGFR(G719C) (Homo sapiens, UniProt P00533, G719C)", "experiment": "KINOMEscan: EGFR(G719C)", "assay_type": "binding", "settings": "1000 nM, read-out: Percent Control"}, "EPHA2": {"target": "EPHA2 (Homo sapiens, UniProt P29317)", "experiment": "KINOMEscan: EPHA2", "assay_type": "binding", "settings": "1000 nM, read-out: Percent Control"}, "EPHB1": {"target": "EPHB1 (Homo sapiens, UniProt P54762)", "experiment": "KINOMEscan: EPHB1", "assay_type": "binding", "settings": "1000 nM, read-out: Percent Control"}, "HUNK": {"target": "HUNK (Homo sapiens, UniProt P57058)", "experiment": "KINOMEscan: HUNK", "assay_type": "binding", "settings": "1000 nM, read-out: Percent Control"}, "IKK-alpha": {"target": "IKK-alpha (Homo sapiens, UniProt O15111)", "experiment": "KINOMEscan: IKK-alpha", "assay_type": "binding", "settings": "1000 nM, read-out: Percent Control"}, "KIT": {"target": "KIT (Homo sapiens, UniProt P10721)", "sequence (P10721 26-976)": "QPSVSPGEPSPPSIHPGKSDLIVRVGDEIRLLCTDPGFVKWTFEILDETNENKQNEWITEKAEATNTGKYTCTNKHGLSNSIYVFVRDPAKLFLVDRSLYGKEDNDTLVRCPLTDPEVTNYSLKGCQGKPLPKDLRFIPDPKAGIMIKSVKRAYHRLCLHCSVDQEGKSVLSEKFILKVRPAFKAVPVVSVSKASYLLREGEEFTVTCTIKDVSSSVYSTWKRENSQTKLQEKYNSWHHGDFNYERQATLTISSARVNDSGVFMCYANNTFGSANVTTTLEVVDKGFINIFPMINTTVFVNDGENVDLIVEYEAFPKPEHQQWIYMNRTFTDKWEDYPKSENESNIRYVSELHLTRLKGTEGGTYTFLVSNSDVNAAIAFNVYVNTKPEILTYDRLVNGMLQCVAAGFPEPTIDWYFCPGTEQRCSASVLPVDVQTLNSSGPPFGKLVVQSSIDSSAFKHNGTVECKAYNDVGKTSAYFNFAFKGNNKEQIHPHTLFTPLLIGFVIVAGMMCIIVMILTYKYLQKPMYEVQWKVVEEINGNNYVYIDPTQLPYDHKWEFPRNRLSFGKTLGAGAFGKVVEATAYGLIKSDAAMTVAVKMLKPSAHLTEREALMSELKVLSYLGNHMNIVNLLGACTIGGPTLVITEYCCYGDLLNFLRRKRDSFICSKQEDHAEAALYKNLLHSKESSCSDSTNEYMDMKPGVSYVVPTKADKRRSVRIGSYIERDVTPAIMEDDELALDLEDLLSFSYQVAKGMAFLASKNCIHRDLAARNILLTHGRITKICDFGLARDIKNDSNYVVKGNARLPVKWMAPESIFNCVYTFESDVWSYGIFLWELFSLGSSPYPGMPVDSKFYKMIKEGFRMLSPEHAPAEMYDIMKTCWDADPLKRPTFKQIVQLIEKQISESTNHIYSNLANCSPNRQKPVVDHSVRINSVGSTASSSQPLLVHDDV", "experiment": "KINOMEscan: KIT", "assay_type": "binding", "settings": "1000 nM, read-out: Percent Control"}, "LOK": {"target": "LOK (Homo sapiens, UniProt O94804)", "experiment": "KINOMEscan: LOK", "assay_type": "binding", "settings": "1000 nM, read-out: Percent Control"}, "LYN": {"target": "LYN (Homo sapiens, UniProt P07948)", "experiment": "KINOMEscan: LYN", "assay_type": "binding", "settings": "1000 nM, read-out: Percent Control"}, "MAP3K4": {"target": "MAP3K4 (Homo sapiens, UniProt Q9Y6R4)", "experiment": "KINOMEscan: MAP3K4", "assay_type": "binding", "settings": "1000 nM, read-out: Percent Control"}, "MAP4K3": {"target": "MAP4K3 (Homo sapiens, UniProt Q8IVH8)", "experiment": "KINOMEscan: MAP4K3", "assay_type": "binding", "settings": "1000 nM, read-out: Percent Control"}, "MAST1": {"target": "MAST1 (Homo sapiens, UniProt Q9Y2H9)", "experiment": "KINOMEscan: MAST1", "assay_type": "binding", "settings": "1000 nM, read-out: Percent Control"}, "MET(M1250T)": {"target": "MET(M1250T) (Homo sapiens, UniProt P08581, M1250T)", "experiment": "KINOMEscan: MET(M1250T)", "assay_type": "binding", "settings": "1000 nM, read-out: Percent Control"}, "MET(Y1235D)": {"target": "MET(Y1235D) (Homo sapiens, UniProt P08581, Y1235D)", "experiment": "KINOMEscan: MET(Y1235D)", "assay_type": "binding", "settings": "1000 nM, read-out: Percent Control"}, "MRCKB": {"target": "MRCKB (Homo sapiens, UniProt Q9Y5S2)", "sequence (Q9Y5S2 whole entry)": "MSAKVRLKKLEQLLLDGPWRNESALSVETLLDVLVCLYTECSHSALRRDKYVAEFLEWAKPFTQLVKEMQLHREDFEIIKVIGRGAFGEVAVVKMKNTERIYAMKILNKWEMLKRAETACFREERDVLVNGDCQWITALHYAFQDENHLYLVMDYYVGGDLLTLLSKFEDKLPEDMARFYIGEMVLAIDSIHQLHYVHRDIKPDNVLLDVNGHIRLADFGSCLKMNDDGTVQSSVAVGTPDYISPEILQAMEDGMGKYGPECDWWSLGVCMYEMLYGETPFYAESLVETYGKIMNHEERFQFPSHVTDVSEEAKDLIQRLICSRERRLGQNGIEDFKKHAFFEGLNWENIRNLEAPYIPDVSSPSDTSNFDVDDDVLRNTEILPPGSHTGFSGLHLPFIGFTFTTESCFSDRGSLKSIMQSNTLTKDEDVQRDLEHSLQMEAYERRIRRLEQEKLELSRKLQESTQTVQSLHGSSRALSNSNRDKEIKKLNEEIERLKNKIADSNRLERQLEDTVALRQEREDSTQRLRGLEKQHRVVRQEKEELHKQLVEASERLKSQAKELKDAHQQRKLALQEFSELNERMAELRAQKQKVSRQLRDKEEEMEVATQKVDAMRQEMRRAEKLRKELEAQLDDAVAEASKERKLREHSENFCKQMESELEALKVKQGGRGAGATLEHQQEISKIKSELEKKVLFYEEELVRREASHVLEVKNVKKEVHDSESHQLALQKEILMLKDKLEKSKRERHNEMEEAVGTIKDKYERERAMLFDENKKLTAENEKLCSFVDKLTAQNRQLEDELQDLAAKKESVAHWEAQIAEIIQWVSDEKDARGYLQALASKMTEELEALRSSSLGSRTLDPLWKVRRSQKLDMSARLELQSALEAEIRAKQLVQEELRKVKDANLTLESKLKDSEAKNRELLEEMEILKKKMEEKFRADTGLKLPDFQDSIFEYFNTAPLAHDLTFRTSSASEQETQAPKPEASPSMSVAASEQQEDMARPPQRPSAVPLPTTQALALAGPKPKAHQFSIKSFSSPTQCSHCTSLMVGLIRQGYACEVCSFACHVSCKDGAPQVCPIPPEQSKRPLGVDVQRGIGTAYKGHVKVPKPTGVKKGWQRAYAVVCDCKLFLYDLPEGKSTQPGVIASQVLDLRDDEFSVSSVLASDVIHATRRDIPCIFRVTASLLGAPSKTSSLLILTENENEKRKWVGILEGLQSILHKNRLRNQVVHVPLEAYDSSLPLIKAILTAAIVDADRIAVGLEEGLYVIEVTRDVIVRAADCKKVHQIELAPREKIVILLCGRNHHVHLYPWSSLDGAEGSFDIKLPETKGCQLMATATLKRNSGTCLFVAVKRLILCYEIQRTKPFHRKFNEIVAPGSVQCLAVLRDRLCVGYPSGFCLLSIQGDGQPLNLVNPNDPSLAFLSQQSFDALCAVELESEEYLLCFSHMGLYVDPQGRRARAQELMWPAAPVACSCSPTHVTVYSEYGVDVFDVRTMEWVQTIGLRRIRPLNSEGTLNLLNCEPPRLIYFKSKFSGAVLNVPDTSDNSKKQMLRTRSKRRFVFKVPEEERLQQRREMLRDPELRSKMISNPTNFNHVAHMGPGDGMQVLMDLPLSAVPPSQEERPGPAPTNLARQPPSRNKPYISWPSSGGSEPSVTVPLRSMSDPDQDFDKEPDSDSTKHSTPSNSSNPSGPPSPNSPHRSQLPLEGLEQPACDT", "experiment": "KINOMEscan: MRCKB", "assay_type": "binding", "settings": "1000 nM, read-out: Percent Control"}, "MST1": {"target": "MST1 (Homo sapiens, UniProt Q13043)", "experiment": "KINOMEscan: MST1", "assay_type": "binding", "settings": "1000 nM, read-out: Percent Control"}, "MTOR": {"target": "MTOR (Homo sapiens, UniProt P42345)", "experiment": "KINOMEscan: MTOR", "assay_type": "binding", "settings": "1000 nM, read-out: Percent Control"}, "CDK7/Cyclin H": {"target": "CDK7/Cyclin H (Homo sapiens, UniProt P50613)", "experiment": "NanoBRET target engagement assay (HEK293)", "assay_type": "cell-based", "design": "host or cells: HEK293"}, "OSU-CLL": {"test_system": "OSU-CLL", "experiment": "Annexin V/propidium iodide flow cytometry", "settings": "compared with HG-3 and MEC-1; 24, 48, 72 h"}}, "data": [{"smiles": "COc1cc(F)ccc1-c1cc(Nc2cc(CS(C)(=N)=O)ccn2)ncc1F", "note": "(stereo not shown) [VIP152]", "values": [{"measurement": "inhibition of CDK9 greater than that of CDK7", "setting": "CDK9; 100 nM", "value": 7, "unit": "fold"}, {"measurement": "inhibition at 0.1 µM", "setting": "CDK9; 100 nM, read-out: inhibition of CDK9 activity compared with control", "value": 95.3, "unit": "%"}, {"measurement": "inhibition at 1 µM", "setting": "CDK9; 1000 nM", "value": 99, "unit": "%"}, {"measurement": "remaining binding at 0.1 µM", "setting": "CDK9; CDK9, 100 nM, read-out: Percent Control", "value": 4.7, "unit": "%"}, {"measurement": "remaining binding at 1 µM", "setting": "CDK9; CDK9, 1000 nM, read-out: Percent Control", "value": 1, "unit": "%"}, {"measurement": "inhibitory capacity against GSK3β", "setting": "GSK3β", "value": "Inhibits"}, {"measurement": "inhibition at 10 µM", "setting": "Adrenergic α1D", "value": 19, "unit": "%"}, {"measurement": "inhibition at 10 µM", "setting": "Calcium Channel N-Type", "value": 4, "unit": "%"}, {"measurement": "% Inh.", "setting": "GABAA, Muscimol, Central", "value": -3, "unit": "%"}, {"measurement": "inhibition at 10 µM", "setting": "Muscarinic M1", "value": -10, "unit": "%"}, {"measurement": "% Inh.", "setting": "Purinergic P2X", "value": 11, "unit": "%"}, {"measurement": "inhibition at 10 µM", "setting": "[1]", "value": 37, "unit": "%"}, {"measurement": "remaining binding at 0.1 µM", "setting": "SNRK", "value": 100, "unit": "%"}, {"measurement": "remaining binding at 0.1 µM", "setting": "TESK1", "value": 100, "unit": "%"}, {"measurement": "remaining binding at 0.1 µM", "setting": "TSSK3", "value": 96, "unit": "%"}, {"measurement": "remaining binding at 1 µM", "setting": "BMPR1A", "value": 97, "unit": "%"}, {"measurement": "remaining binding at 1 µM", "setting": "CAMKK1", "value": 13, "unit": "%"}, {"measurement": "remaining binding at 1 µM", "setting": "CSF1R-autoinhibited", "value": 73, "unit": "%"}, {"measurement": "remaining binding at 1 µM", "setting": "DDR1", "value": 29, "unit": "%"}, {"measurement": "remaining binding at 1 µM", "setting": "EGFR(G719C)", "value": 97, "unit": "%"}, {"measurement": "remaining binding at 1 µM", "setting": "EPHA2", "value": 97, "unit": "%"}, {"measurement": "remaining binding at 1 µM", "setting": "EPHB1", "value": 99, "unit": "%"}, {"measurement": "remaining binding at 1 µM", "setting": "HUNK", "value": 100, "unit": "%"}, {"measurement": "remaining binding at 1 µM", "setting": "IKK-alpha", "value": 93, "unit": "%"}, {"measurement": "remaining binding at 1 µM", "setting": "KIT", "value": 83, "unit": "%"}, {"measurement": "remaining binding at 1 µM", "setting": "LOK", "value": 53, "unit": "%"}, {"measurement": "remaining binding at 1 µM", "setting": "LYN", "value": 90, "unit": "%"}, {"measurement": "remaining binding at 1 µM", "setting": "MAP3K4", "value": 82, "unit": "%"}, {"measurement": "remaining binding at 1 µM", "setting": "MAP4K3", "value": 57, "unit": "%"}, {"measurement": "remaining binding at 1 µM", "setting": "MAST1", "value": 81, "unit": "%"}, {"measurement": "remaining binding at 1 µM", "setting": "MET(M1250T)", "value": 27, "unit": "%"}, {"measurement": "remaining binding at 1 µM", "setting": "MET(Y1235D)", "value": 19, "unit": "%"}, {"measurement": "remaining binding at 1 µM", "setting": "MRCKB", "value": 59, "unit": "%"}, {"measurement": "remaining binding at 1 µM", "setting": "MST1", "value": 92, "unit": "%"}, {"measurement": "remaining binding at 1 µM", "setting": "MTOR", "value": 100, "unit": "%"}, {"measurement": "IC50 compared with other inhibitors", "setting": "CDK7/Cyclin H", "value": "IC50 was higher than dinaciclib and KB-0742"}, {"measurement": "sensitivity to induction of apoptosis", "setting": "OSU-CLL", "value": "highest sensitivity to induction of apoptosis"}]}]}
